In US9341616B2, “Sweet taste receptor chimeric proteins and use thereof” (AJINOMOTO CO., INC., priority 2014, dated 2016) one finds S/N data, which are given here for nine molecules.

Structures are written as SMILES. Residues, ends and D or L forms follow the SMILES beside them.

The target of the test is h-mT1R2-481/T1R3mosaicB (UniProt Q8TE23+Q925D8, A537S/A558R/A564V/A568V/A570T/A588V/A645S/A649T/A658V/A698V/A702T/A782V/A793V/A807V/A88D/C582S/C678S/E530V/E534N/E542M/E548N/E725V/F525Y/F541I/F612A/F622V/F665L/F695L/F71L/G696N/G701T/G86K/H484Y/H528R/H728R/I152V/I481V/I486P/I490V/I510L/I518V/I595M/I617V/I643V/I645L/I692L/I695G/I706V/I740A/I803L/K504M/K555R/K565R/K626T/K714N/K818R/K827G/L151M/L521P/L560F/L571I/L578I/L610P/L631F/L636F/L639V/L684P/L688V/L68N/L702I/L72W/L734M/L735F/L800F/L823M/L825Q/M492I/M616G/M644L/M682V/M690V/M744T/M748V/M74L/N540G/N541S/N547G/N675D/N721H/P545F/P561R/P564S/P638T/P67S/P824S/Q123R/Q536L/Q546K/Q550E/Q555R/Q611L/Q676H/Q757R/Q795R/Q831P/R498S/R632Q/R667S/S112P/S124D/S501P/S547N/S550A/S576L/S595F/S610P/S628F/S635P/S637R/S663R/S670G/S679G/S681F/S703N/S717H/S727G/S784D/S804G/T109A/T529S/T542A/T549I/T609V/T629S/T642S/T663I/T694M/T705I/T706G/T716I/T813A/V120A/V508I/V512P/V557A/V573A/V584A/V585L/V613L/V617M/V673M/V687A/V691A/V694A/V718L/V718M/V723A/V729T/V738A/V741L/V774I/V791M/V805L/V812A/V821L/W599R/W676R/W824R/Y533F/Y615F/Y671F/Y680C/Y769S/Y783H/Y794L). The note with it: Table 6; genes h-mT481/T1R3mB (h-mT1R2-481, T1R3mB); HEK293E cells. The procedure: The HEK293E cells maintained by using the DMEM/Ham's F-12 medium (Nakarai Tesque) containing 10% fetal bovine serum ([…]) and 1% Pen Strep (GIBCO) were washed with D-PBS(−) (Nakarai Tesque), and collected from the flask by using 0.25% Trypsin EDTA (GIBCO). The cells were centrifuged (1,200 rpm, 3 minutes), and after the supernatant was removed, suspended in 5% FBS DMEM/Ham's F-12 at a density of 0.75×10^7 cell/ml. This suspension (10 ml) was put into a […] (IWAKI), and culture was performed overnight (37° C., 5% CO2). On the next day, the medium was exchanged with Opti-MEM (30 ml, Invitrogen, Life Technologies), a sweet taste receptor gene mixture (Gα15-trans48LD gene, various kinds of T1R2 chimeric genes, and various kinds of T1R3 chimeric genes, 63.8 μg in total) prepared by using Opti-MEM and Lipofectamin 2000 (Invitrogen, Life Technologies) was slowly added to the cell suspension, and incubation was performed (37° C., 5% CO2) for 6 hours to attain gene transfer.
h-mT1R2-481/T1R3mosaicB, sequence (Q8TE23 with tags, fused parts or gaps with the stated changes limits assumed): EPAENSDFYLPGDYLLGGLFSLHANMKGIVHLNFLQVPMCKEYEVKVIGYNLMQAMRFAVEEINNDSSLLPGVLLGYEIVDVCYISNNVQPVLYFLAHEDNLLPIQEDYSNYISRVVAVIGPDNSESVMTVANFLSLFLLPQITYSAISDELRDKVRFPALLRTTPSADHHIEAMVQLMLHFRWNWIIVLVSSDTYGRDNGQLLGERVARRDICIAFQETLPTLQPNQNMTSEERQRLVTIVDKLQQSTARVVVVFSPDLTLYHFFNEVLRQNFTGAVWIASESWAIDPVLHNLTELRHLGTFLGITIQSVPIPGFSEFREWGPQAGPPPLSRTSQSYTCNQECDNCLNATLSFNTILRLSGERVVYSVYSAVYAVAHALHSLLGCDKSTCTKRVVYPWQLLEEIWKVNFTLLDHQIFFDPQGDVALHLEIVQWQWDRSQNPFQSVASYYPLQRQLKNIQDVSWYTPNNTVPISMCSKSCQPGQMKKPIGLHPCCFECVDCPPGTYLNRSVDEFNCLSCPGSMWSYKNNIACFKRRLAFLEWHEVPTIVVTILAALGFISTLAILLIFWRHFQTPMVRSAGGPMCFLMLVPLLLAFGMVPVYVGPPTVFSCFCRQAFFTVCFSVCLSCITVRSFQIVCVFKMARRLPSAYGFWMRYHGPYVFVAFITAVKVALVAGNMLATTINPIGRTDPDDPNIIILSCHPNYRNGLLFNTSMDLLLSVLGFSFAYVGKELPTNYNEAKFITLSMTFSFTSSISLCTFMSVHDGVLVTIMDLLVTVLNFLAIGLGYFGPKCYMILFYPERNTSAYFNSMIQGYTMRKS
h-mT1R2-481/T1R3mosaicB, sequence (Q925D8 with tags, fused parts or gaps with the stated changes limits assumed): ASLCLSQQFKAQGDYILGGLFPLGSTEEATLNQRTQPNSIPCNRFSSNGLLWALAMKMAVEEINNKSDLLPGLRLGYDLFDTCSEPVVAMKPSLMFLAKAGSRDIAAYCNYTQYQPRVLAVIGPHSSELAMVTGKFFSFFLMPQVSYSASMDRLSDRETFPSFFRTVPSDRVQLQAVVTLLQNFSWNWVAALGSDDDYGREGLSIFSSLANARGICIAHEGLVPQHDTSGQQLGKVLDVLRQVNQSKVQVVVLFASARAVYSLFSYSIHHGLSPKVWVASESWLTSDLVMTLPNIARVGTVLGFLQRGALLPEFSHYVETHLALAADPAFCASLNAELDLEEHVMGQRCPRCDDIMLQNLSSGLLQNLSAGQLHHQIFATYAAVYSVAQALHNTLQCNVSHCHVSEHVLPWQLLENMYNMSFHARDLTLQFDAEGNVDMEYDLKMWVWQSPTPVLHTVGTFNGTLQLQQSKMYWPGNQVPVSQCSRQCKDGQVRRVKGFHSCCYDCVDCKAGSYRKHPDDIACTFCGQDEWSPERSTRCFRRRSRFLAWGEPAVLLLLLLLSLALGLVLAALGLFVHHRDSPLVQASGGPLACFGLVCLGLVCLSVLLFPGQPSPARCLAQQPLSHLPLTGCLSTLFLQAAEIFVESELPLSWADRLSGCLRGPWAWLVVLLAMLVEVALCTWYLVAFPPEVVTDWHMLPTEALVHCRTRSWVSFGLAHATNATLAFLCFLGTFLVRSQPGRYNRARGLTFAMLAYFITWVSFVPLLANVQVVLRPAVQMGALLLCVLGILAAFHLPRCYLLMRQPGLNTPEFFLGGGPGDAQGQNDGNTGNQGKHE
After the gene transfer, the cells were washed with D-PBS(−), then removed from the flask by using 0.25% Trypsin EDTA (GIBCO), and collected. After the cell number was counted, the cells were suspended in the 5% FBS DMEM medium (2.78 mM glucose, GIBCO) at a density of 0.5×10^6 cell/ml. This cell suspension was put into wells of D-Lysine coat 96-well plate (BD bioscience) in such a volume that the cell count is 7.0×10^4 cells/well, and the cells were cultured overnight.
After the culture, all the medium of the 96 wells were discarded. 200 μl of the staining solution for measurement of intracellular calcium ion′ Calcium Assay Kit Express (Molecular Device), diluted 80 times with an assay buffer (20 mM HEPES, 146 mM NaCl, 1 mM MgSO4, 1.39 mM glucose, 1 mM CaC12, 2.5 mM Probenecid, 0.05% bovine serum albumin) was added to each well, and the plate was left standing at 37° C. for 30 minutes and at room temperature for 45 minutes to perform staining. After the staining, 50 μl of a solution of stimulant (sweet taste substance) prepared with the assay buffer was added to each well, and the fluorescence value was measured for 120 seconds after the stimulation by using FDSSμEELL (Hamamatsu Photonics). By measuring the fluorescence value (Ex. 480 nm, Em. 540 nm) before and after the stimulation, the change of the intracellular free calcium ion concentration caused by addition of the stimulant via a sweet taste receptor was quantitatively investigated. The measurement and analysis of the fluorescence value was performed by using the software attached to FDSSμEELL (FDSS7000EX), and ΔF/F value was calculated in accordance with the following equation, and used for the evaluation. ΔF/F=(Maximum fluorescence value after stimulation−Minimum fluorescence value after stimulation)/(Fluorescence value before stimulation)
Furthermore, by using the ΔF/F values obtained when each sweet taste substance was added, the S/N ratio was calculated. Specifically, the S/N value was calculated by using the minimum value of ΔF/F obtained when each substance was added at various concentrations as noise (N) value, and the similarly obtained maximum value of ΔF/F as the signal (S) value, and used as an index for sensitivity of the measurement of the activity of each receptor. That is, a higher S/N value means a higher sensitivity for detection of an interaction of a sweet taste receptor and a test substance, which makes it easier to detect stimulation with a sweet taste substance or sweet taste-regulating substance of a lower concentration.
The sweet taste substances used as the stimulating substance are acesulfame potassium (Tokyo Kasei Kogyo), sodium saccharin (WAKO), sucralose (SIGMA), sucrose (WAKO), and neotame (SIGMA), as well as aspartame, advantame, and SC-45647 ([3-[(S)-1-phenylethyl]-2-(4-cyanophenyl)guanidino]acetic acid, which were all synthesized in-house.
In turn, `CC1=CC(=O)NS(=O)(=O)O1` [Acesulfame K, acesulfame potassium] showed a S/N of 5.6.

`COC(=O)[C@H](Cc1ccccc1)NC(=O)[C@H](CC(=O)O)NCCCc1ccc(OC)c(O)c1` [Advantame, advantame] yielded a S/N of 10.2.

The molecule `COC(=O)[C@H](Cc1ccccc1)NC(=O)[C@@H](N)CC(=O)O` [Aspartame, aspartame] (HELM PEPTIDE1{D.F.[CO[*:1]]}$$$$V2.0) yielded a S/N of 7.8.

In the case of `COc1ccc(CCC(=O)c2c(O)cc(O[C@@H]3O[C@H](CO)[C@@H](O)[C@H](O)[C@H]3O[C@@H]3O[C@@H](C)[C@H](O)[C@@H](O)[C@H]3O)cc2O)cc1O` [NHDC, neohesperidin dihydrochalcone], the S/N stood at 5.8.

`COC(=O)[C@H](Cc1ccccc1)NC(=O)[C@H](CC(=O)O)NCCC(C)(C)C` [Neotame, neotame] displayed a S/N of 7.7.

On to `C[C@H](NC(=Nc1ccc(C#N)cc1)NCC(=O)O)c1ccccc1` [SC-45647, [3-[(S)-1-phenylethyl]-2-(4-cyanophenyl)guanidino]acetic acid], for which the S/N is given as 7.7.

For `O=C1NS(=O)(=O)c2ccccc21.[Na]` [Saccharin Na, sodium saccharin], the S/N came out at 6.1.

`OC[C@H]1O[C@H](O[C@]2(CCl)O[C@H](CCl)[C@@H](O)[C@@H]2O)[C@H](O)[C@@H](O)[C@H]1Cl` [Sucralose, sucralose] showed a S/N of 6.6.

Consider `OC[C@H]1O[C@@](CO)(O[C@H]2O[C@H](CO)[C@@H](O)[C@H](O)[C@H]2O)[C@@H](O)[C@@H]1O` [Sucrose, sucrose], for which the S/N amounted to 4.0.
